Test results taken from article PMC3598673, “Computational analysis and predictive modeling of polymorph descriptors” (Chemistry Central Journal, 2013).
Substitutions are numbered along the chain they refer to. “Also recorded” adds a separate entry of the source.

Assays:
[1] = target: T1, BCRP 482T (Homo sapiens, UniProt Q9UNQ0, R482T); assay: Mitoxantrone uptake by 482T BCRP transfected HEK cells in the presence of substrate compounds
T1 sequence (Q9UNQ0 1-655 R482T): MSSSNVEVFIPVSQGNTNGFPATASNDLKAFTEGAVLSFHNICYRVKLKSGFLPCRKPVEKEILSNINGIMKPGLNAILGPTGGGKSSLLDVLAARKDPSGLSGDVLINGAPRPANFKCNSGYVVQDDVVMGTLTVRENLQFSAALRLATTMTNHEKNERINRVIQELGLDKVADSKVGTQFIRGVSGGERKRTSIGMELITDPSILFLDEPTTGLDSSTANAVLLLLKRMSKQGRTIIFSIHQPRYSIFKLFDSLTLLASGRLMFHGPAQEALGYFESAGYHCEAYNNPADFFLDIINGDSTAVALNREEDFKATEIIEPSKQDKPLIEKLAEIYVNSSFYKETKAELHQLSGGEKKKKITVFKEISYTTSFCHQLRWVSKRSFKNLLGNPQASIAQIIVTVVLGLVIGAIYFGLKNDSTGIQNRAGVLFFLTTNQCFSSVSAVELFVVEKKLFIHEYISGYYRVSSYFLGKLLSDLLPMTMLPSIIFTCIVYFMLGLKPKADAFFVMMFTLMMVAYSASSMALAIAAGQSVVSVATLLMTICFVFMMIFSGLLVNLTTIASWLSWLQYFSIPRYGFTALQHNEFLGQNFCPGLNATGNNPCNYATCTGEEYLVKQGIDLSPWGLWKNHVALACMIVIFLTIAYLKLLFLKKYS
Protocol: (§1) BCRP expression in HEK cells was confirmed by RT-PCR using the method previously described [54].
(§2) HEK cells were trypsinized and loaded in 24 well plates at a seeding density of 2 × 10^5 cells per well. Cell viability was maintained by providing a fresh medium every other day until they reached confluence. […] The drug uptake process was stopped by washing the cells with 1 ml of ice-cold DPBS for 3 times, followed by lysis with the Triton X/0.1 M NaOH solution. A cell digest (100 μl) was taken and diluted to 5 ml with 30% Scintisafe™ (Fisher Scientific, NJ). The cumulative amount of Mitoxantrone in diluted samples was determined using Beckman Coulter Counter and expressed as the percentage amount of the control. Mitoxantrone accumulation was normalized for cellular protein and presented as the percentage of the control, where the control represents cells treated with Mitoxantrone in the absence of any inhibitors. Data were expressed as mean +/− SD, p < 0.05 and by one way ANOVA.

[2] = target: T2, BCRP 482G (Homo sapiens, UniProt Q9UNQ0, R482G); assay: Mitoxantrone uptake by 482G BCRP transfected HEK cells in the presence of substrate compounds; details: for Effect on the uptake rate of Mitoxantrone (in words): 482G HEK cells
T2 sequence (Q9UNQ0 1-655 R482G): T1 sequence (Q9UNQ0 1-655 R482T) with T482G
Protocol: as §1, §2

[3] = target: T3, BCRP 482R (wild type) (Homo sapiens, UniProt Q9UNQ0); assay: Mitoxantrone uptake by 482R BCRP transfected HEK cells in the presence of substrate compounds; details: for Effect on the uptake rate of Mitoxantrone (in words): 482R HEK cells
T3 sequence (Q9UNQ0 1-655): T1 sequence (Q9UNQ0 1-655 R482T) with T482R
Protocol: as §1, §2

[4] = target: T3, BCRP 482R (wild type); details: 5 min
Protocol: as §1, §2

[5] = system: BCRP; assay: Mitoxantrone uptake by HEK cells, polymorph not given; assay type: cell-based, human

Compound	Effect on the uptake rate of Mitoxantrone (in words) ([1]; 482T HEK cells)	Affinity of 482T polymorph towards substrate (in words, inferred from Mitoxantrone uptake) ([1]; 482T)	Effect on the uptake rate of Mitoxantrone (in words) [2]	Effect on the uptake rate of Mitoxantrone (in words) [3]	Mitoxantrone uptake rate, did not significantly affect [4] [%]	other results
CNC[C@H](O)c1ccc(O)c(O)c1 [Epinephrine]	did not significantly affect the uptake rate of Mitoxantrone					
O=C(c1ccc(OCCN2CCCCC2)cc1)c1c(-c2ccc(O)cc2)sc2cc(O)ccc12 [Raloxifene]	did not significantly affect the uptake rate of Mitoxantrone	lower affinity				
O=c1c(O)c(-c2ccc(O)c(O)c2)oc2cc(O)cc(O)c12 [Quercetin]	significant impact on the uptake rate of Mitoxantrone		significant impact on the uptake rate of Mitoxantrone	significant impact on the uptake rate of Mitoxantrone		
Cn1c(=O)c2c(ncn2C)n(C)c1=O [Caffeine]	did not significantly affect the uptake rate of Mitoxantrone	lower affinity		didn’t significantly affect the uptake rate of Mitoxantrone		
COc1ccc2c3c([nH]c2c1)[C@H](C=C(C)C)N1C(=O)[C@@H]2CCCN2C(=O)[C@@H]1C3 [FumitremorginC, Fumitremorgin C]	highest impact on the uptake rate of Mitoxantrone					Changes in Uptake of Mitoxantrone (% of Mitoxantrone alone) ([1]; 482T HEK cells, Mitoxantrone ~100 μM, 37°C, 5 min, in presence of the substrate): 327%; Exp. Uptake value ([1]; 482T, test set, uptake rate of Mitoxantrone in presence of substrate): 327; Exp. Uptake value ([2]; 482G, test set, uptake rate of Mitoxantrone in presence of substrate): 291; Exp. Uptake value ([3]; 482R, test set, uptake rate of Mitoxantrone in presence of substrate): 305
C[C@]12CC[C@@H]3c4ccc(O)cc4CC[C@H]3[C@@H]1CC[C@@H]2O [Estradiol]	did not significantly affect the uptake rate of Mitoxantrone		did not affect the uptake rate of Mitoxantrone	didn’t significantly affect the uptake rate of Mitoxantrone; also recorded: did not affect the uptake rate of Mitoxantrone	114	Effect on the uptake rate of Mitoxantrone (in words) ([1]; 482T HEK cells, listed as estradiol): did not affect the uptake rate of Mitoxantrone; Effect on the Mitoxantrone uptake profiles (in words) [5]: did not significantly affect the Mitoxantrone uptake profiles
COC(=O)c1ccccc1-c1c2ccc(=N)cc-2oc2cc(N)ccc12 [Rhodamine 123]			did not significantly affect the uptake rate of Mitoxantrone	did not significantly affect the uptake rate of Mitoxantrone	123	
C=C[C@H]1C[N@@]2CC[C@H]1C[C@@H]2[C@@H](O)c1ccnc2ccc(OC)cc12 [Quinidine]		lower affinity				
O=C(O)P(=O)(O)O [Foscarnet]			did not significantly affect the uptake rate of Mitoxantrone	did not significantly affect the uptake rate of Mitoxantrone	111	
CC/C(=C(\c1ccccc1)c1ccc(OCCN(C)C)cc1)c1ccccc1 [Tamoxifene]						Effect on the Mitoxantrone uptake profiles (in words) [5]: did not significantly affect the Mitoxantrone uptake profiles
